Results published in patent publication US20070299072A1, “KV1.5 POTASSIUM CHANNEL INHIBITORS” (Wyeth, priority 2006, published 2007).

Key:
Assay type in all cases: cell-based
[1] = biological target: T1, Kv1.5 (Homo sapiens, UniProt P22460); test: Kv1.5 Patch Clamp EP (whole cell patch clamp; single point at 1 μM and IC50); conditions: for inhibition at 1 µM: single point at 1.0 μM, Kv1.5 stably over expressed in HEK or LTK- cells; for IC50: concentration response
T1 construct: expressed in transfected cells; host or cells: HEK or LTK- cells
T1 sequence (P22460 whole entry): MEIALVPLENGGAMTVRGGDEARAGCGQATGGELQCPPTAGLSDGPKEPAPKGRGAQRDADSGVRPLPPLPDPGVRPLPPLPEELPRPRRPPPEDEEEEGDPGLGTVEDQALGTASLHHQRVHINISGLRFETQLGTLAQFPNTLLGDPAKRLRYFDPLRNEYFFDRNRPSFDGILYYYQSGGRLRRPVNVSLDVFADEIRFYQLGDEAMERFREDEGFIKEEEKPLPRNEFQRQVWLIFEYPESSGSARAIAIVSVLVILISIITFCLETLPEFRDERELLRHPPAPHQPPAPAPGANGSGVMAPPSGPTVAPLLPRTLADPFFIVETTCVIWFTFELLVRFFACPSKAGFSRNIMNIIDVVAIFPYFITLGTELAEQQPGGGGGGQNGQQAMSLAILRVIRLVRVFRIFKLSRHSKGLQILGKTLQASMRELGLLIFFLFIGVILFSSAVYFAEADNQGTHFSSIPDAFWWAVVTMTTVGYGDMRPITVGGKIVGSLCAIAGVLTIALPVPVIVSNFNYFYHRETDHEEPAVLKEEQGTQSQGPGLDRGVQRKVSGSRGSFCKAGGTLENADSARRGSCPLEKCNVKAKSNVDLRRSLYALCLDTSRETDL
Protocol: The external solution is standard Tyrodes solution. […] Inhibition was measured at the end of the 1 second pulses and expressed relative to controls. Initial Kv1.5 inhibition is estimated by single point determinations done at 1 μM.

[2] = biological target: T2, HERG (Homo sapiens, UniProt Q12809); test: HERG Patch Clamp EP (whole cell patch clamp, tail currents; single point at 10 μM and IC50); conditions: for inhibition at 10 µM: human, HEK cells stably overexpressing HERG, single point at 10 μM, HERG in HEK cells, read-out: HERG % Inhib. @ 10 μM; for IC50: concentration response
T2 construct: expressed in transfected cells; host or cells: HEK cells
T2 sequence (Q12809 whole entry): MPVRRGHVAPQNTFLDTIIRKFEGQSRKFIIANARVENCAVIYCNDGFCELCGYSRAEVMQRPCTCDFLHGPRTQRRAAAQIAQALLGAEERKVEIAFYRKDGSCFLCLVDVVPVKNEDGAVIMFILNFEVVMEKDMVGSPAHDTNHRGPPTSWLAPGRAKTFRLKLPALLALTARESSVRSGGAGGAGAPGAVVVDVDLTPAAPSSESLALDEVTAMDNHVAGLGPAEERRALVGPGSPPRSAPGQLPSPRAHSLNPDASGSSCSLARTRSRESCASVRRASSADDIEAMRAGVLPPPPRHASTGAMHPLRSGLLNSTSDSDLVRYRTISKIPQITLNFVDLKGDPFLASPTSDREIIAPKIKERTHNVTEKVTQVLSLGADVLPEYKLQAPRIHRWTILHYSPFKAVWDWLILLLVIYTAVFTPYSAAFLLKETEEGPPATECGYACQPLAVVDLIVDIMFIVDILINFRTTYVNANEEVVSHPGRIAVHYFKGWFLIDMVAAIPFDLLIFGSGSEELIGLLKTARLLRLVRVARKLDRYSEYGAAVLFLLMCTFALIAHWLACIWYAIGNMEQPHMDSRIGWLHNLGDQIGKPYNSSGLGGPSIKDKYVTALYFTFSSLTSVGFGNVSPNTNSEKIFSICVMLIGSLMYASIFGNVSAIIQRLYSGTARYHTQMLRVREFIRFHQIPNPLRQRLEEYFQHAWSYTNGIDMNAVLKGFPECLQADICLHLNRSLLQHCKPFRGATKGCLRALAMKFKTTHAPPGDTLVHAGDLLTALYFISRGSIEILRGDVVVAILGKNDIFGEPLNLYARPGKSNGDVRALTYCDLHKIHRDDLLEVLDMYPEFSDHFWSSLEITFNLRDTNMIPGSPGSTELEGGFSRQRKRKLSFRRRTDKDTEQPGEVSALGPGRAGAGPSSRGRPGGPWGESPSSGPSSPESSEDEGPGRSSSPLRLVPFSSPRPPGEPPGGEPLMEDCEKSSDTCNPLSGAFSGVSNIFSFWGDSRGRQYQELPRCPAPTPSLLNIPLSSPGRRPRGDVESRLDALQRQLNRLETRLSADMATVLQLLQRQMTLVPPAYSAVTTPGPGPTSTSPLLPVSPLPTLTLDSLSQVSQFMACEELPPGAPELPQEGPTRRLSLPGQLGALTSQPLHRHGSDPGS
Text: The external solution is standard Tyrodes solution.

[3] = system: L-type calcium channels; test: FLIPR L-type Calcium Channel Assay (calcium influx in HL-1 cells after KCl); conditions: read-out: L-type Ca2+ IC50
Protocol: HL-1 cells expressing endogenous L-type calcium channels are removed from culture flasks using trypsin, plated on fibronectin/gelatin-coated, clear-bottomed, black-walled 96-well microplates in Claycomb media (JRH Biosciences #51800) containing 10% fetal bovine serum, 4 mM L-glutamine, and 10 μM norepinephrine, and grown to confluency overnight. The next day, growth medium is aspirated from confluent cell monolayers and replaced with 100 μL per well Tyrode's solution (in mM: 130 NaCl, 4 KCl, 1.8 CaCl2, 1.0 MgCl2, 20 HEPES, 10 glucose, pH 7.35) and 50 μL per well FLIPR Calcium Assay kit, component A (#R-8033, Molecular Devices Corporation) and incubated for 60 min. in a 5% CO2 37° C. incubator. 50 μL per well test compounds are added to the plates and further incubated for 15 min. in a 5% CO2 37° C. incubator. All final solutions contain the anion exchange inhibitor, probenecid (2.5 mM). The 96-well plates are then placed in the center position of the FLIPR 1 (Fluorometric Imaging Plate Reader, Molecular Devices Corporation). Cell monolayers in each well are simultaneously illuminated at 488 nm with an Argon ion laser, and fluorescence emission is monitored using a 510-570 nm bandpass filter and a cooled CCD camera. To depolarize the plasma membrane and activate L-type calcium channels, 50 μL per well of 20 mM KCl (final concentration) are dispensed simultaneously to all 96 wells using the FLIPR's automatic 96-well pipettor. Fluorescence measurements are captured for 5 min. following KCl addition. Calcium influx, expressed as % control, is calculated for each concentration of test compound and concentration-response curves and IC50 values are generated using GraphPad Prism 4.0.

Compound	inhibition at 1 µM [1]	IC50 [3]	IC50 [1]	inhibition at 10 µM [2]	IC50 [2]
CN1C(c2ccc(C3CC3)cc2)N(CCCc2ccccc2)C(=O)C12CCN(S(C)(=O)=O)CC2 (centres unmarked) [Compound 54, 2-(4-Cyclopropylphenyl)-8-methanesulfonyl-1-methyl-3-(3-phenylpropyl)-1,3,8-triazaspiro-[4.5]decan-4-one]	88%	18 µM	0.266 µM	53%	4.9 µM
COc1ccc(CCN2C(=O)C3(CCN(C(C)=O)CC3)N(C)C2c2ccc(C3CC3)cc2)cc1 (centres unmarked) [Compound 5, 8-Acetyl-2-(4-cyclopropylphenyl)-3-[2-(4-methoxyphenyl)ethyl]-1-methyl-1,3,8-triaza-spiro[4.5]decan-4-one]	84%	36 µM	0.514 µM	8%	31 µM
COc1ccc(CCN2C(=O)C3(CCN(S(C)(=O)=O)CC3)N(C)C2c2ccc(C(F)(F)F)cc2)cc1 (centres unmarked) [Compound 34, 2-(4-Trifluoromethylphenyl)-8-methanesulfonyl-3-[2-(4-methoxyphenyl)ethyl]-1-methyl-1,3,8-triaza-spiro[4.5]decan-4-one]	80%	18 µM		50%	
COC(=O)N1CCC2(CC1)NC(c1ccc(C3CC3)cc1)N(CCc1ccc(OC)cc1)C2=O (centres unmarked) [Compound 75, Methyl 2-(4-cyclopropylphenyl)-3-[2-(4-methoxyphenyl)ethyl]-4-oxo-1,3,8-triazaspiro[4.5]decane-8-carboxylate]	94%	19 µM		2%	
CCOC(=O)N1CCC2(CC1)C(=O)N(CCc1ccc(OC)cc1)C(c1ccc(C3CC3)cc1)N2C (centres unmarked) [Compound 35, Ethyl 2-(4-cyclopropylphenyl)-3-[2-(4-methoxyphenyl)ethyl]-1-methyl-4-oxo-1,3,8-triazaspiro[4.5]decane-8-carboxylate]	96%	30 µM		65%	
COc1ccc(CCN2C(=O)C3(CCN(S(C)(=O)=O)CC3)N(C(=O)C(F)(F)F)C2c2ccc(C3CC3)cc2)cc1 (centres unmarked) [Compound 92, 2-(4-cyclopropylphenyl)-3-[2-(4-methoxyphenyl)ethyl]-8-(methylsulfonyl)-1-(trifluoroacetyl)-1,3,8-triazaspiro[4.5]decan-4-one]	81%	14 µM		73%	
COc1ccc(C2N(CCCc3ccccc3)C(=O)C3(CCN(C(=O)C4CC4)CC3)N2C)cc1 (centres unmarked) [Compound 46, 8-Cyclopropanecarbonyl-2-(4-methoxyphenyl)-3-(3-phenylpropyl)-1-methyl-1,3,8-triazaspiro-[4.5]decan-4-one]	68%	17 µM		32%	
CN1C(c2ccc(C3CC3)cc2)N(CCCc2ccccc2)C(=O)C12CCN(C(=O)OC(C)(C)C)CC2 (centres unmarked) [Compound 47, 2-(4-Cyclopropylphenyl)-1-methyl-4-oxo-3-(3-phenylpropyl)-1,3,8-triazaspiro-[4.5]decane-8-carboxylic acid tert-butyl ester]	75%	20 µM			

The remaining compounds from weak to strong by IC50 [3], led by results:

inhibition at 1 µM [1]	IC50 [3]	IC50 [1]	Compound	inhibition at 10 µM [2]	IC50 [2]
83%	14 µM		COc1ccc(CCN2C(=O)C3(CCN(C(=O)OC(C)(C)C)CC3)N(C)C2c2ccc(OC)cc2)cc1 (centres unmarked) [Compound 37, tert-Butyl 2-(4-methoxyphenyl)-3-[2-(4-methoxyphenyl)ethyl]-1-methyl-4-oxo-1,3,8-triazaspiro[4.5]decane-8-carboxylate]	12%	
90%	13 µM		COc1ccc(CCN2C(=O)C3(CCN(S(C)(=O)=O)CC3)N(C)C2c2ccc(C3CC3)cc2)cc1 (centres unmarked) [Compound 32, 2-(4-cyclopropylphenyl)-8-methanesulfonyl-3-[2-(4-methoxy-phenyl)ethyl]-1-methyl-1,3,8-triaza-spiro[4.5]decan-4-one]	57%	
92%	13 µM	0.319 µM	COc1ccc(CCN2C(=O)C3(CCN(C(=O)NC(C)C)CC3)N(C)C2c2ccc(C3CC3)cc2)cc1 (centres unmarked) [Compound 16, 2-(4-Cyclopropylphenyl)-3-[2-(4-methoxyphenyl)ethyl]-1-methyl-4-oxo-1,3,8-triaza-spiro[4.5]decane-8-carboxylic acid isopropylamide]	48%	
96%	12 µM	0.393 µM	COc1ccc(CCN2C(=O)C3(CCN(C(=O)OC(C)(C)C)CC3)NC2Cc2ccc(C(C)(C)C)cc2)cc1 (centres unmarked) [Compound 96, 2-(4-tert-butylbenzyl)-3-[2-(4-methyoxyphenyl)ethyl]-4-oxo-1,3,8-triaza-spiro[4.5]decane-8-carboxylic acid tert-butyl ester]	12%	
94%	12 µM	0.273 µM	COc1ccc(CCN2C(=O)C3(CCN(CC(=O)N(C)C)CC3)N(C)C2c2ccc(C3CC3)cc2)cc1 (centres unmarked) [Compound 89, 2-{2-(4-cyclopropylphenyl)-3-[2-(4-methoxyphenyl)ethyl]-1-methyl-4-oxo-1,3,8-triazaspiro[4.5]dec-8-yl}-N,N-dimethylacetamide]	43%	12 µM
97%	11 µM		COc1ccc(CCN2C(=O)C3(CCN(C(=O)N4CCC4)CC3)N(C)C2c2ccc(C3CC3)cc2)cc1 (centres unmarked) [Compound 21, 2-(4-cyclopropylphenyl)-3-[2-(4-methoxyphenyl)ethyl]-1-methyl-8-(azetidin-1-ylcarbonyl)-1,3,8-triaza-spiro[4.5]decan-4-one]	54%	
92%	7.4 µM		COc1ccc(CCN2C(=O)C3(CCN(C(=O)OC(C)C)CC3)N(C)C2c2ccc(C3CC3)cc2)cc1 (centres unmarked) [Compound 36, Isopropyl 2-(4-cyclopropylphenyl)-3-[2-(4-methoxyphenyl)ethyl]-1-methyl-4-oxo-1,3,8-triazaspiro[4.5]decane-8-carboxylate]		
88%	7 µM		COc1ccc(CCN2C(=O)C3(CCN(C(=O)C4CCCC4)CC3)N(C)C2c2ccc(OC(F)F)cc2)cc1 (centres unmarked) [Compound 82, 8-(cyclopentylcarbonyl)-2-[4-(difluoromethoxy)phenyl]-3-[2-(4-methoxyphenyl)ethyl]-1-methyl-1,3,8-triazaspiro[4.5]decan-4-one]	90%	
85%	6.7 µM		COc1ccc(CCN2C(=O)C3(CCN(C(=O)OC(C)(C)C)CC3)N(C)C2c2ccc(CC(C)C)cc2)cc1 (centres unmarked) [Compound 85, tert-butyl 2-(4-isobutylphenyl)-3-[2-(4-methoxyphenyl)ethyl]-1-methyl-4-oxo-1,3,8-triazaspiro[4.5]decane-8-carboxylate]	3%	
96%	6.2 µM		COc1ccc(CCN2C(=O)C3(CCN(C(=O)N4CCCCC4)CC3)N(C)C2c2ccc(C3CC3)cc2)cc1 (centres unmarked) [Compound 9, 2-(4-Cyclopropylphenyl)-3-[2-(4-methoxyphenyl)ethyl]-1-methyl-8-(piperidine-1-carbonyl)-1,3,8-triaza-spiro[4.5]decan-4-one]	60%	
86%	4.4 µM		CCN(CC)c1ccc(C2N(CCc3ccc(OC)cc3)C(=O)C3(CCN(C(=O)OC(C)(C)C)CC3)N2C)cc1 (centres unmarked) [Compound 39, tert-Butyl 2-(4-diethylaminophenyl)-3-[2-(4-methoxyphenyl)ethyl]-1-methyl-4-oxo-1,3,8-triazaspiro[4.5]decane-8-carboxylate]		
